# Assay results taken from US7445892B2, “Method of testing anticancer agent-sensitivity of tumor cells” (Eisai Co., Ltd., priority 2000, dated 2008).
# Experiments:
# Format in all cases: cell-based, human
# HCT116-C9-C1 = experiment: Gene expression analysis by quantitative PCR; conditions: resistant strain HCT116-C9-C1, 8 μM, 0-12 hours, FIG. 4
# Experimental: (§1) E7070, or ER-35748 or ER-68487 represented by the structural formula shown below was added to the media of an E7070-susceptible strain HCT116-C9 and an E7070-resistant strain HCT116-C9-C1 at a concentration of 8 μM and the cells were cultured. Then, cells were recovered after 0, 3, 6 and 12 hours. Further, the cells were also cultured for 12 hours without adding the drug and recovered. In order to confirm that variations in gene expression obtained in Example 2 reflected the susceptibility of a tumor cell to E7070, changes of gene expression in E7070-susceptible cells and E7070-resistant cells were examined by quantitative PCR using RNA shown in Example 1, SYBR Green and ABI Prism 7700 Sequence Detection System (Perkin-Elmer Applied Biosystems). The operation was performed in two steps of a reverse transcription reaction and PCR reaction. […] The mRNA level in each specimen was quantified by measuring fluorescence intensity. In comparison of two or more specimens, quantitative values were corrected based on the mRNA level of GAPDH in each specimen. The relationships between the drug treatment time and each mRNA level are shown in FIGS. 2 to 5, where the quantified value at 0 hour after the drug treatment was used as a control (100%).
# HCT116-C9 [1] = experiment: Gene expression analysis by quantitative PCR; conditions: susceptible strain HCT116-C9, 8 μM, 0-12 hours, FIG. 2
# Experimental: as §1
# LX-1-E2 = experiment: Cell growth inhibition by the MTT method; conditions: resistant strain LX-1-E2, drug concentration 8 μM, 72 hours culture
# Experimental: (§2) The used cell strains HCT116-C9, HCT116-C9-C1, LX-1 and LX-1-E2 were cultured for 72 hours with addition of E7070. The actual operation was performed by using CellTiter 96 Non-Radioactive Cell Proliferation Assay (Promega, Madison, Wis.) according to the attached operation manual.
# HCT116-C9 [2] = experiment: Cell growth inhibition by the MTT method; conditions: HCT116-C9, 72 hours culture, FIG. 1
# Experimental: as §2
# C9-C4 = experiment: Gene expression analysis using GeneChip in E7070-resistant strain C9-C4; conditions: resistant strain C9-C4, 8 μM, 12 hours
# Experimental: The fragmented cRNA was hybridized with GeneChip Hu6800 (Affymetrix) in 100 mM MES, 1 M sodium salt, 20 mM EDTA and 0.01% Tween 20 at 45° C. for 16 hours. After the hybridization, the GeneChip was washed and stained according to the protocol EukGE-WS2 attached to Affymetrix Fluidics Station. For the staining, streptavidin-phycoerythrin and biotinylated goat anti-streptavidin antibody were used. The stained GeneChip was scanned by using HP Argon Ion Laser Confocal Scanner (Hewlett Packard) to measure its fluorescence intensity. The fluorescence was measured at 570 nm by using an excitation light at 488 nm. The quantitative data analyses were all conducted by using GeneChip Software (Affymetrix). To quantify RNA, an average of “differences [(Perfect match hybridization signal)−(Mismatch signal)]” was obtained for each probe family. […] Two kinds of E7070-resistant strains (C9-C1 and another resistant strain (C9-C4) obtained in the same method as C9-C1) were treated with 8 μM of E7070 for 12 hours in the same manner as described above, and variations of the gene expression were analyzed by using GeneChip for the genes listed in Tables 1 and 2.
structure (smiles),measurement,setting,value
"NS(=O)(=O)c1ccc(S(=O)(=O)Nc2cccc3c(Cl)c[nH]c23)cc1 [E7070, N-(3-chloro-7-indolyl)-1,4-benzenedisulfonamide]","mRNA level variation of S80343, U07919, U11791, M95809, U18291, U63743, M61764 (corrected by GAPDH)",HCT116-C9-C1,no expression variation was observed
same,"mRNA level variation of S80343, U07919, U11791, M95809, U18291, U63743, M61764 (corrected by GAPDH)",HCT116-C9 [1],largest expression variation
same,growth inhibitory effect,LX-1-E2,some growth inhibitory effect
same,susceptibility (cell growth inhibition),HCT116-C9 [2],highest susceptibility
same,variations of the gene expression for the genes listed in Tables 1 and 2,C9-C4,no gene that increased or decreased 1.8 times or more was observed
